Results taken from patent US11008313B2, “Substituted 1-methyl-1,2,3,4-tetrahydroisoquinoline molecules as PCSK9 allosteric binders” (Merck Sharp & Dohme Corp., priority 2016, dated 2021).
pIC50: −log10 of the molar value.

What was measured:
PCSK9 [1] = biological target: T1, PCSK9 (Homo sapiens, UniProt Q8NBP7); assay: Differential scanning calorimetry (DSC) assay, direct binding / thermal stabilization of PCSK9; settings: Tm(with compound)−Tm(no compound); 2 μM PCSK9, 300 μM test compound
Method: Differential scanning calorimetry (DSC) was used as a biophysical method to confirm direct binding to PCSK9. A solution containing 2 μM PCSK9 with or without 300 μM test compound in 25 mM HEPES (pH 7.5)/150 mM NaCl/1 mM CaCl2/3.75% DMSO was transferred to the sample cell of the DSC instrument, while buffer alone was placed in the reference cell. Both cells were heated at a constant rate (200° C./hr) from 20-80° C. while recording the excess heat capacity of the sample cell relative to the reference cell. Each thermogram was analyzed to provide the melting temperature (Tm) of the protein.
The higher the temperature shift generally, the higher the affinity.

PCSK9 [2] = biological target: T1, PCSK9; assay: Fluorescence polarization competition binding assay (probe: compound of Example 57); settings: 2 μM PCSK9, 50 nM compound of Example 57 as probe, overnight incubation; read-out: FP IC
Method: Relative compound affinities were determined using a competition binding assay with a fluorescence polarization format. Solution (49 μL) containing 2 μM PCSK9 and 50 nM compound of Example 57 in 20 mM HEPES (pH 7.5)/150 mM NaCl/1 mM CaCl2/0.005% P-20 was dispensed to wells of a 384-well black non-binding microplate before the addition of 1 μL of test compound or DMSO. After mixing, the plate was centrifuged and sealed for overnight incubation in the dark. The anisotropy signal was read using a fluorescence polarization protocol on a Perkin-Elmer Envision plate reader. The % inhibition was determined relative to the window defined by the DMSO control wells and wells containing 50 nM probe in the absence of PCSK9.

T1 sequence (Q8NBP7 153-692): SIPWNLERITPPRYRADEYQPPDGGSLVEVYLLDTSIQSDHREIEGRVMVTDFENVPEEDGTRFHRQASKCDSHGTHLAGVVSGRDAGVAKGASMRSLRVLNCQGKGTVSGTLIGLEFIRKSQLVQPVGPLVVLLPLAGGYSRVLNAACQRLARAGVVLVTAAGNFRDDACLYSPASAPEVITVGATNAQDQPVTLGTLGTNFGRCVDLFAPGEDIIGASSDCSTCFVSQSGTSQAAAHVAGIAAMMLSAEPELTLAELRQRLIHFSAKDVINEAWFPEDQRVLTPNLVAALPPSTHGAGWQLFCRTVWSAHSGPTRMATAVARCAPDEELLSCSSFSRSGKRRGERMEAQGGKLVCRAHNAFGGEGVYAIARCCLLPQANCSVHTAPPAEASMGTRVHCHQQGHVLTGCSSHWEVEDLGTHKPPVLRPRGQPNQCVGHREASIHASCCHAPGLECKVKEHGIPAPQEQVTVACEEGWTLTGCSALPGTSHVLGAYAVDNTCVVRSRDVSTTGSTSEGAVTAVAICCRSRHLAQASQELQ

SMILES | ΔTm at 300 µM (PCSK9 [1]) | pIC50 (PCSK9 [2]) | DSC ΔTm (PCSK9 [1])
COc1cc2c(cc1Oc1ccc(-c3ccc(C(=O)O)cc3)cc1)[C@@](C)(CC(=O)Nc1nccs1)NCC2 [Example 34, (R)-4′-((6-methoxy-1-methyl-1-(2-oxo-2-(thiazol-2-ylamino)ethyl)-l,2,3,4-tetrahydroisoquinolin-7-yl)oxy)-[1,1′-biphenyl]-4-carboxylic acid] | – | 6.18 | 5.5 °C
COc1cc2c(cc1Oc1ccc(-c3ccc(CC(=O)O)cc3)cc1)[C@@](C)(CC(=O)Nc1nccs1)NCC2 [Example 36, (R)-2-(4′-((6-methoxy-1-methyl-1-(2-oxo-2-(thiazol-2-ylamino)ethyl)-1,2,3,4-tetrahydroisoquinolin-7-yl)oxy)-[1,1′-biphenyl]-4-yl)acetic acid] | 5.56 °C | 6.12 | –
C[C@]1(CC(=O)Nc2nccs2)NCCc2cc(OCCn3cc(C(N)CO)nn3)c(Oc3ccc(C(=O)O)c(F)c3)cc21 (stereo partly drawn) [Example 37, 4-(((1R)-6-(2-(4-(1-amino-2-hydroxyethyl)-1H-1,2,3-triazol-1-yl)ethoxy)-1-methyl-1-(2-oxo-2-(thiazol-2-ylamino)ethyl)-1,2,3,4-tetrahydroisoquinolin-7-yl)oxy)-2-fluorobenzoic acid] | 5.63 °C | 6.21 | –
CC1(c2cn(CCOc3cc4c(cc3Oc3ccc(C(=O)O)c(F)c3)[C@@](C)(CC(=O)Nc3nccs3)NCC4)nn2)CCOC1 (stereo partly drawn) [Example 38, 2-fluoro-4-(((1R)-1-methyl-6-(2-(4-(3-methyltetrahydrofuran-3-yl)-1H-1,2,3-triazol-1-yl)ethoxy)-1-(2-oxo-2-(thiazol-2-ylamino)ethyl)-1,2,3,4-tetrahydroisoquinolin-7-yl)oxy)benzoic acid] | 7 °C | 6.57 | –
COCCOCc1cn(CCOc2cc3c(cc2Oc2ccc(C(=O)O)c(F)c2)[C@@](C)(CC(=O)Nc2nccs2)NCC3)nn1 [Example 41, (R)-2-fluoro-4-((6-(2-(4-((2-methoxyethoxy)methyl)-1H-1,2,3-triazol-1-yl)ethoxy)-1-methyl-1-(2-oxo-2-(thiazol-2-ylamino)ethyl)-1,2,3,4-tetrahydroisoquinolin-7-yl)oxy)benzoic acid] | 7.18 °C | 6.45 | –
Cc1ccc(-c2cn(CCOc3cc4c(cc3Oc3ccc(C(=O)O)c(F)c3)[C@@](C)(CC(=O)Nc3nccs3)NCC4)nn2)cn1 [Example 45, (R)-2-fluoro-4-((1-methyl-6-(2-(4-(6-methylpyridin-3-yl)-1H-1,2,3-triazol-1-yl)ethoxy)-1-(2-oxo-2-(thiazol-2-ylamino)ethyl)-1,2,3,4-tetrahydroisoquinolin-7-yl)oxy)benzoic acid] | 6.96 °C | 6.28 | –
CC(=O)NCc1cn(CCOc2cc3c(cc2Oc2ccc(C(=O)O)c(F)c2)[C@@](C)(CC(=O)Nc2nccs2)NCC3)nn1 [Example 46] | 6.48 °C | 6.22 | –
C[C@]1(CC(=O)Nc2nccs2)NCCc2cc(OCCn3cc(COc4ccccc4)nn3)c(Oc3ccc(C(=O)O)c(F)c3)cc21 [Example 47, (R)-2-fluoro-4-((1-methyl-1-(2-oxo-2-(thiazol-2-ylamino)ethyl)-6-(2-(4-(phenoxymethyl)-1H-1,2,3-triazol-1-yl)ethoxy)-1,2,3,4-tetrahydroisoquinolin-7-yl)oxy)benzoic acid] | 6.27 °C | 6.19 | –
C[C@]1(CC(=O)Nc2nccs2)NCCc2cc(OCCn3cc(C4(C(=O)O)CC4)nn3)c(Oc3ccc(C(=O)O)c(F)c3)cc21 [Example 48, (R)-4-((6-(2-(4-(1-carboxycyclopropyl)-1H-1,2,3-triazol-1-yl)ethoxy)-1-methyl-1-(2-oxo-2-(thiazol-2-ylamino)ethyl)-1,2,3,4-tetrahydroisoquinolin-7-yl)oxy)-2-fluorobenzoic acid] | 6.02 °C | 6.17 | –
C[C@]1(CC(=O)Nc2nccs2)NCCc2cc(OCCn3cc(CNS(C)(=O)=O)nn3)c(Oc3ccc(C(=O)O)c(F)c3)cc21 [Example 50, (R)-2-fluoro-4-((1-methyl-6-(2-(4-(methylsulfonamidomethyl)-1H-1,2,3-triazol-1-yl)ethoxy)-1-(2-oxo-2-(thiazol-2-ylamino)ethyl)-1,2,3,4-tetrahydroisoquinolin-7-yl)oxy)benzoic acid] | 6.74 °C | 6.17 | –

The remaining lines, values ahead:

ΔTm at 300 µM (PCSK9 [1]) | pIC50 (PCSK9 [2]) | DSC ΔTm (PCSK9 [1]) | SMILES
6.18 °C | 6.27 | – | COc1cc2c(cc1Oc1ccc(-c3ccc(CCC(=O)O)cc3)c(F)c1)[C@@](C)(CC(=O)Nc1nccs1)NCC2 [Example 32, (R)-3-(2′-fluoro-4′-((6-methoxy-1-methyl-1-(2-oxo-2-(thiazol-2-ylamino)ethyl)-1,2,3,4-tetrahydroisoquinolin-7-yl)oxy)-[1,1′-biphenyl]-4-yl)propanoic acid]
5.2 °C | 6.25 | – | COc1cc2c(cc1Oc1ccc(-c3ccc(C(=O)O)cc3F)nc1)[C@@](C)(CC(=O)Nc1nccs1)NCC2 [Example 33, (R)-3-fluoro-4-(5-((6-methoxy-1-methyl-1-(2-oxo-2-(thiazol-2-ylamino)ethyl)-1,2,3,4-tetrahydroisoquinolin-7-yl)oxy)pyridin-2-yl)benzoic acid]
5.29 °C | 6.17 | – | COc1cc2c(cc1Oc1ccc(-c3ccc(C(=O)O)cc3)nc1)[C@@](C)(CC(=O)Nc1nccs1)NCC2 [Example 35, (R)-4-(5-((6-methoxy-1-methyl-1-(2-oxo-2-(thiazol-2-ylamino)ethyl)-1,2,3,4-tetrahydroisoquinolin-7-yl)oxy)pyridin-2-yl)benzoic acid]
5.98 °C | 6.54 | – | Cc1nnc(-c2cn(CCOc3cc4c(cc3Oc3ccc(C(=O)O)c(F)c3)[C@@](C)(CC(=O)Nc3nccs3)NCC4)nn2)o1 [Example 39, (R)-2-fluoro-4-((1-methyl-6-(2-(4-(5-methyl-1,3,4-oxadiazol-2-yl)-1H-1,2,3-triazol-1-yl)ethoxy)-1-(2-oxo-2-(thiazol-2-ylamino)ethyl)-1,2,3,4-tetrahydroisoquinolin-7-yl)oxy)benzoic acid]
6.75 °C | 6.52 | – | Cc1cn(-c2ccc(-c3cn(CCOc4cc5c(cc4Oc4ccc(C(=O)O)c(F)c4)[C@@](C)(CC(=O)Nc4nccs4)NCC5)nn3)cc2C)cn1 [Example 40, (R)-2-fluoro-4-((1-methyl-6-(2-(4-(3-methyl-4-(4-methyl-1H-imidazol-1-yl)phenyl)-1H-1,2,3-triazol-1-yl)ethoxy)-1-(2-oxo-2-(thiazol-2-ylamino)ethyl)-1,2,3,4-tetrahydroisoquinolin-7-yl)oxy)benzoic acid]
5.97 °C | 6.41 | – | C[C@]1(CC(=O)Nc2nccs2)NCCc2cc(OCCn3cc(CN4CCNC4=O)nn3)c(Oc3ccc(C(=O)O)c(F)c3)cc21 [Example 42, (R)-2-fluoro-4-((1-methyl-1-(2-oxo-2-(thiazol-2-ylamino)ethyl)-6-(2-(4-((2-oxoimidazolidin-1-yl)methyl)-1H-1,2,3-triazol-1-yl)ethoxy)-1,2,3,4-tetrahydroisoquinolin-7-yl)oxy)benzoic acid]
5.45 °C | 6.38 | – | COc1ccc(-n2nc(-c3cn(CCOc4cc5c(cc4Oc4ccc(C(=O)O)c(F)c4)[C@@](C)(CC(=O)Nc4nccs4)NCC5)nn3)cc(C)c2=O)cc1 [Example 43, (R)-2-fluoro-4-((6-(2-(4-(1-(4-methoxyphenyl)-5-methyl-6-oxo-1,6-dihydropyridazin-3-yl)-1H-1,2,3-triazol-1-yl)ethoxy)-1-methyl-1-(2-oxo-2-(thiazol-2-ylamino)ethyl)-1,2,3,4-tetrahydroisoquinolin-7-yl)oxy)benzoic acid]
6.89 °C | 6.37 | – | C[C@]1(CC(=O)Nc2nccs2)NCCc2cc(OCCn3cc(CCCCCCCCC(=O)O)nn3)c(Oc3ccc(C(=O)O)c(F)c3)cc21 [Example 44, (R)-4-((6-(2-(4-(8-carboxyoctyl)-1H-1,2,3-triazol-1-yl)ethoxy)-1-methyl-1-(2-oxo-2-(thiazol-2-ylamino)ethyl)-1,2,3,4-tetrahydroisoquinolin-7-yl)oxy)-2-fluorobenzoic acid]
6.29 °C | 6.17 | – | C[C@]1(CC(=O)Nc2nccs2)NCCc2cc(OCCn3cc(-c4cnccn4)nn3)c(Oc3ccc(C(=O)O)c(F)c3)cc21 [Example 49, (R)-2-fluoro-4-((1-methyl-1-(2-oxo-2-(thiazol-2-ylamino)ethyl)-6-(2-(4-(pyrazin-2-yl)-1H-1,2,3-triazol-1-yl)ethoxy)-1,2,3,4-tetrahydroisoquinolin-7-yl)oxy)benzoic acid]
6.87 °C | 6.15 | – | Cc1ccc(C2C(C(=O)O)c3ccccc3C(=O)N2c2cccc(-c3cn(CCOc4cc5c(cc4Oc4ccc(C(=O)O)c(F)c4)[C@@](C)(CC(=O)Nc4nccs4)NCC5)nn3)c2)cc1 (stereo partly drawn) [Example 51, 2-(3-(1-(2-(((R)-7-(4-carboxy-3-fluorophenoxy)-1-methyl-1-(2-oxo-2-(thiazol-2-ylamino)ethyl)-1,2,3,4-tetrahydroisoquinolin-6-yl)oxy)ethyl)-1H-1,2,3-triazol-4-yl)phenyl)-1-oxo-3-(p-tolyl)-1,2,3,4-tetrahydroisoquinoline-4-carboxylic acid]
